Earlier results as cited in patent US8911765B2, “Biodegradable, polymer coverings for breast implants” (Tyrx, Inc., priority 2007, dated 2014).

Settings: rabbit, in vivo

O=S(=O)([O-])CCS.[Na+] [Mesna, sodium 2-mercaptoethane sulfonate]
capsule formation around implants: reduce capsule formation
